Measurements published in PubChem BioAssay AID330 (DTP/NCI, 2004).
Several values for one entry are separate records, joined by “and”; a condition that tells them apart may be missing. Equal values may be shown once. Inconclusive results and toxic doses are left out. Rule for the calls: active = survival T/C of 150% or more; inactive = T/C below 125% in these data. Numbered stars: 1 amine (or outer) side, 2 acyl side, 3 side chain; on linkers, the order of the positions; unused ones are H or OH. Peptide text beside a SMILES is read from it. ξ: configuration not given here. ξγGlu = O=C(O)C(CCC(=O)[*:2])N[*:1]

Test system: P388 leukemia ip, CD2F1 mice, survival T/C
Experiment: NCI In Vivo Anticancer Drug Screen. Data for tumor model P388 Leukemia (intraperitoneal) in CD2F1 (CDF1) mice
Details: endpoint: median survival time, higher = longer survival
In short: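 Mice carrying the transplanted tumor received test compound or vehicle. Survival was recorded in each group, and the value is the treated-group measurement divided by that of the vehicle-treated control group.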

[1] = dose: 12.5 mg/kg/injection, schedule: Q01DX005 (ip), vehicle: saline with Tween-80
[2] = dose: 25.0 mg/kg/injection, schedule: Q01DX005 (ip), vehicle: saline with Tween-80
[3] = dose: 50.0 mg/kg/injection, schedule: Q01DX005 (ip), vehicle: saline with Tween-80
[4] = dose: 200.0 mg/kg/injection, schedule: Q01DX005 (ip), vehicle: saline with Tween-80
[5] = dose: 100.0 mg/kg/injection, schedule: Q01DX005 (ip), vehicle: saline with Tween-80
[6] = dose: 60.0 mg/kg/injection, schedule: Q01DX005 (ip), vehicle: saline with Tween-80
[7] = dose: 120.0 mg/kg/injection, schedule: Q01DX005 (ip), vehicle: saline with Tween-80
[8] = dose: 240.0 mg/kg/injection, schedule: Q01DX005 (ip), vehicle: saline with Tween-80
[9] = dose: 50.0 mg/kg/injection, schedule: Q01DX009 (ip), vehicle: saline

Measured: T/C

CC1CN(C(=S)NNC(C)c2cc3ccccc3cn2)CC(C)O1 (stereo not drawn)
inactive: [1] 97 % of control | [2] 112 % of control

CC1(C)OC(=O)N=C1c1cccc(Cl)c1
inactive: dose: 60.0 mg/kg/injection, schedule: Q01DX005 (ip), vehicle: Klucel (hydroxypropylcellulose) (HPC) 102 % of control | dose: 120.0 mg/kg/injection, schedule: Q01DX005 (ip), vehicle: Klucel (hydroxypropylcellulose) (HPC) 101 % of control | dose: 240.0 mg/kg/injection, schedule: Q01DX005 (ip), vehicle: Klucel (hydroxypropylcellulose) (HPC) 117 % of control

O=C1c2ccccc2C(=O)c2c1cc1cccccc2-1
inactive: dose: 3.13 mg/kg/injection, schedule: Q01DX005 (ip), vehicle: saline with Tween-80 99 % of control | dose: 6.25 mg/kg/injection, schedule: Q01DX005 (ip), vehicle: saline with Tween-80 97 % of control | [1] 90 % of control and 91 % of control | [3] 89 % of control | [4] 95 % of control

COC(=O)C1(c2ccccc2)OP2(N(C)C)(OCCN2C)OC1(C(=O)OC)c1ccccc1 (stereo not drawn)
inactive: [3] 104 % of control | [5] 98 % of control | [4] 91 % of control

Nc1ccc(-c2nc3ccccc3c(=O)[nH]2)cc1
inactive: dose: 12.5 mg/kg/injection, schedule: Q01DX009 (ip), vehicle: Klucel (hydroxypropylcellulose) (HPC) 86 % of control | dose: 25.0 mg/kg/injection, schedule: Q01DX009 (ip), vehicle: Klucel (hydroxypropylcellulose) (HPC) 100 % of control and 108 % of control and 92 % of control | dose: 100.0 mg/kg/injection, schedule: Q01DX009 (ip), vehicle: Klucel (hydroxypropylcellulose) (HPC) 122 % of control and 90 % of control and 94 % of control | dose: 200.0 mg/kg/injection, schedule: Q01DX009 (ip), vehicle: Klucel (hydroxypropylcellulose) (HPC) 111 % of control

CN(C)CCCN1c2ccccc2Cc2ccccc21
inactive: [1] 111 % of control | [2] 108 % of control | [3] 100 % of control and 111 % of control | [5] 114 % of control

CSc1nc(NC2OC(CO)C(O)C(O)C2O)c(Cl)c(=O)[nH]1 (stereo not drawn)
inactive: [6] 97 % of control | [7] 97 % of control | [8] 98 % of control

OCC1OC2OC3C(CO)OC(OC4C(CO)OC(OC5C(CO)OC(OC6C(CO)OC(OC7C(CO)OC(OC8C(CO)OC(OC1C(O)C2O)C(O)C8O)C(O)C7O)C(O)C6O)C(O)C5O)C(O)C4O)C(O)C3O (stereo not drawn)
inactive: [9] 100 % of control | dose: 100.0 mg/kg/injection, schedule: Q01DX009 (ip), vehicle: saline 94 % of control

CS/C(=C\c1sc2ccccc2[n+]1C)SCC(=O)c1ccccc1
inactive: dose: 25.0 mg/kg/injection, schedule: Q04DX002 (ip), vehicle: saline with Tween-80 100 % of control | dose: 50.0 mg/kg/injection, schedule: Q04DX002 (ip), vehicle: saline with Tween-80 104 % of control | dose: 100.0 mg/kg/injection, schedule: Q04DX002 (ip), vehicle: saline with Tween-80 106 % of control

NC(Cc1c[nH]c2ccccc12)C(=O)NCCS(=O)(=O)O (stereo not drawn)
inactive: [6] 102 % of control | [7] 104 % of control | [8] 99 % of control

CCSC(C#N)C(C)=O (stereo not drawn)
inactive: dose: 12.5 mg/kg/injection, schedule: Q01DX009 (ip), vehicle: saline 106 % of control | dose: 25.0 mg/kg/injection, schedule: Q01DX009 (ip), vehicle: saline 97 % of control | dose: 50.0 mg/kg/injection, schedule: Q01DX009 (ip), vehicle: saline with Tween-80 100 % of control | [9] 100 % of control

O=c1[nH]c(Br)nc2nc[nH]c12
inactive: [3] 93 % of control | [5] 94 % of control | [4] 92 % of control

NC(CCC(=O)NCC(=O)NCC(=O)O)C(=O)O (stereo not drawn) (ξγGlu-Gly-Gly-OH)
inactive: dose: 50.0 mg/kg/injection, schedule: Q01DX005 (ip), vehicle: saline 100 % of control | dose: 100.0 mg/kg/injection, schedule: Q01DX005 (ip), vehicle: saline 97 % of control | dose: 200.0 mg/kg/injection, schedule: Q01DX005 (ip), vehicle: saline 102 % of control

CC1(C)CC(=O)C(CSc2ccccc2)C(=O)C1
inactive: dose: 12.5 mg/kg/injection, schedule: Q01DX001 (ip), vehicle: saline 108 % of control | dose: 25.0 mg/kg/injection, schedule: Q01DX001 (ip), vehicle: Klucel (hydroxypropylcellulose) (HPC) 100 % of control | dose: 25.0 mg/kg/injection, schedule: Q01DX001 (ip), vehicle: saline 111 % of control | dose: 50.0 mg/kg/injection, schedule: Q01DX001 (ip), vehicle: Klucel (hydroxypropylcellulose) (HPC) 100 % of control and 105 % of control | dose: 50.0 mg/kg/injection, schedule: Q01DX001 (ip), vehicle: saline 112 % of control | dose: 100.0 mg/kg/injection, schedule: Q01DX001 (ip), vehicle: Klucel (hydroxypropylcellulose) (HPC) 100 % of control
